# From patent publication US20230002344A1, “NOVEL BENZOTHIOPHENE DERIVATIVES AND USE THEREOF FOR STIMULATING MITOCHONDRIAL TURNOVER” (NIBN, The National Institute For Biotechnology In The Negev …, priority 2019, published 2023)
# Entries after “also recorded” stand apart in the source; their conditions may differ.
# How the values were obtained:
# [1] = system: INS1 cells; experiment: Ubiquitinated mitochondrial proteins (anti-ubiquitin blot); assay type: cell-based; details: 25 uM, 24 h
# Experimental: INS1 cells were treated with SPB08007 (25 uM) or DMSO (0.1%) for 24 h. FIG. 17A: total mitochondrial protein isolated from 4×10^7 cells were loaded into SDS-PAGE gel previously added of Stain Free reagent, which was used to detect total protein bands in the BioRad Bio Lab gel reader. Protein was transferred into PVDF membrane, blotted to anti-ubiquitin. FIG. 17B: Quantification of total ubiquitin relative to total mitochondrial proteins. The quantification is expressed relative to DMSO, control. *p=0.001.
# Cell treatments and mitochondrial extraction. INS1 cells were treated with SBP08007 or MWP00839 25 uM for 24 h. Mitochondrial and cytosolic fractions from INS1 cells were performed by using the Mitochondria Isolation Kit for Cultured Cells (Pierce). INS1 cells were lysed in a hypotonic buffer (10 mM NaCl, 1.5 mM MgCl2, and 10 mM Tris.HCl, pH 7.5), and mitochondria were extracted in a Dounce homogenizer in mitochondrial buffer (1 mM EDTA, 210 mM mannitol, 70 mM sucrose, and 5 mM Tris.HCl, 7.5), followed by centrifugation at 1,300×g for 10 min at 4° C. The supernatant was further centrifuged at 17,000×g for 15 min at 4° C. to pellet the mitochondria. […]
# Western blot. […] Stain free total protein labeling was imaged in Image Lab 6.0 Software (BioRad), which was used for quantification of the mitochondria and normalization to total protein staining.
# [2] = system: INS1 cells
# Experimental: Cellular oxygen consumption. An hour before oxygen consumption measurements, cell media was replaced by assay media (2 mM glucose, 0.8 mM Mg 2+, 1.8 mM Ca 2+, 143 mM NaCl, 5.4 mM KCl, 0.91 mM, NaH 2 PO 4 , and 15 mg/mL Phenol red) for 120 min at 37° C. (no CO2) before loading into the Seahorse Bioscience XF24 extracellular analyzer. The ports of the cartridge containing the oxygen probes were loaded with the compounds to be injected during the assay (50 μL/port) and the cartridge was calibrated.
# Basal respiration was recorded for 30 min, at approximately 5 min intervals until system stabilization. Glucose was injected at a final concentration of 12 mM and glucose stimulated respiration was recorded for approximately 15 min. FCCP (Carbonyl cyanide-4-phenylhydrazone) was used at final concentration of 4 μM and injected with sodium pyruvate (Sigma) at a final concentration of 5 mM. Oligomycin and antimycin were used at final concentrations of 2 and 4 μM, respectively. All respiratory modulators were used at ideal concentrations titrated during preliminary experiments (not shown) and oxygen consumption rates were recorded for up to 15 min due the toxicity of these compounds. […] All the OCR values were subtracted from the lowest antimycin OCR.
# [3] = system: INS1 cells; experiment: Lipotoxicity (palmitate) protection and recovery; assay type: cell-based
# Experimental: In FIGS. 4A and 4B: INS1 cells were treated with either DMSO (control), SPB08007 (25 μM), or MWP00839 (25 μM) for 18 hours and were subjected to an Oxygen consumption rate (OCR) test. Viability test (using XTT staining) was determined after 24 hours exposure. […] In FIG. 4C: INS1 cells were treated with 400 μM palmitate (1:5 BSA palmitate) for 24 hours and were then let to recover in presence or absence of SPB08007 (“SBP”) for 18 hours. n=4 (paired t-test).
# To address the potential beneficiary effect of mitochondrial clearance by SPB08007 (compound of structural Formula 6), we employed lipotoxicity, a model that we have previously reported to impair autophagy and mitochondrial clearance by alkalization of the lysosomes (Las, G., et al., Fatty acids suppress autophagic turnover in beta-cells. J Biol Chem, 2011.286 (49): p. 42534-44).
# [4] = system: INS1 cells; experiment: Mitochondrial membrane potential (TMRE/MTG); assay type: cell-based; details: 25 uM, 24 h
# Experimental: INS1 cells were treated for 24 h with SPB08007 (25 uM) or DMSO (0.1%). Mitochondrial membrane potential was analyzed cell by cell through TMRE staining corrected by Mitotracker Green (MTG). Cells were imaged using a 100× Plan Neofluar objective and the Airyscan module of a Zeiss LSM880 confocal microscope. […] Each experiment was repeated 2 times, 59-85 cells of each group were analyzed in each experiment for TMRE/MTG, and 48 fields were analyzed in each experiment for Mitosox analysis. *p<0.05 vs. DMSO; ***p<0.05 vs. DMSO and SPB08007.
# To assess mitochondrial membrane potential, INS1 cells were plated in each compartment of a quadrant imaging dish (Greiner Bio-One International) at a density of 1.2*10^5 cells/well. After 48 h, cells were incubated RPMI-1640 containing 25 μM of compound A or vehicle (0.1% DMSO). After 18h, the cells were stained in RPMI-1640 media containing 200 nM MitoTracker Green (MTG) and 15 nM of Tetramethylrhodamine, ethyl ester (TMRE); cells were then washed three times and finally kept in RPMI-1640 containing TMRE but lacking MTG. Live-Imaging was performed using a 63× Plan Neofluar objective and the Airyscan module of a Zeiss LSM880 confocal microscope. The mitochondrial membrane potential was analyzed by TMRE fluorescence corrected by MTG, using the Fiji/ImageJ software.
# [5] = system: Mitochondrial complex I; experiment: Complex I activity assay; assay type: biochemical; details: mitochondria from INS1 cells treated with 25 uM
# Experimental: Complex I Activity assay. Mitochondrial complex I enzyme activity was measured using Abcam's complex I enzyme activity microplate assay Kit (ab109721) by following the oxidation of reduced nicotinamide adenine dinucleotide (NADH) to oxidized NAD+ and the simultaneous reduction of a dye which leads to increased absorbance at OD=450 nm.
# [6] = system: INS1 cells; experiment: Mitochondrial morphology (aspect ratio, circularity); assay type: cell-based; details: 25 uM, 24 h
# Experimental: INS1 cells were treated with SPB08007 (25 uM) or DMSO (0.1%) for 24 h. Mitochondria were stained with Mitotracker Green and TMRE (images represented in FIG. 10). MTG fluorescence was used to calculate Aspect Ratio (AR) (FIG. 16A) and circularity (FIG. 16B) of mitochondrial structures.
# [7] = system: INS1 cells; experiment: Western blot for mitochondrial proteins; assay type: cell-based; details: 24 h
# Experimental: INS1 cells expressing Mitotimer under EF-1 alpha promoter were treated for 18 hours with rapamycin (100 nM). […] FIGS. 2B and 2C show a Western blot for mitochondrial proteins upon treatment with rapamycin. Note that rapamycin increased mitochondrial mass.
# Cell treatments and mitochondrial extraction. INS1 cells were treated with SBP08007 or MWP00839 25 uM for 24 h. Mitochondrial and cytosolic fractions from INS1 cells were performed by using the Mitochondria Isolation Kit for Cultured Cells (Pierce). INS1 cells were lysed in a hypotonic buffer (10 mM NaCl, 1.5 mM MgCl2, and 10 mM Tris.HCl, pH 7.5), and mitochondria were extracted in a Dounce homogenizer in mitochondrial buffer (1 mM EDTA, 210 mM mannitol, 70 mM sucrose, and 5 mM Tris.HCl, 7.5), followed by centrifugation at 1,300×g for 10 min at 4° C. The supernatant was further centrifuged at 17,000×g for 15 min at 4° C. to pellet the mitochondria. The crude mitochondrial fraction was resuspended for washing and centrifuged at 17,000×g for 15 min at 4° C. The pellets were collected as the mitochondrial fraction.
# Western blot. Cell lysates were diluted in Laemmli sample buffer (100 mM Tris-HCl, 2% SDS, 10% glycerol, 0.1% bromophenol blue) containing 5% beta-mercaptoethanol. After heating at 95° C. for 5 min, proteins were separated by SDS-PAGE previously added of Stain Free reagent (BioRad), and transferred onto PVDF membranes. Membranes were blocked with 5% non-fat milk and detection of individual proteins was carried out by blotting with specific primary antibodies against ubiquitin (Calbiochem 1:1,000). Chemiluminescence detection using a secondary peroxidase-linked anti-rabbit (Calbiochem; 1:10,000) and a detection system from Pierce KLP (Rockford, Ill., USA) was performed. Stain free total protein labeling was imaged in Image Lab 6.0 Software (BioRad), which was used for quantification of the mitochondria and normalization to total protein staining.
smiles,measurement,setting,value
CC(=O)N/C(=C\c1sc2ccccc2c1C)C(=O)O [SPB08007],ubiquitination of mitochondrial proteins,[1],less ubiquitinated
same,OCR under oligomycin,"[2]; 25 μM, 18 hours exposure",decreased as well
same,basal oxygen consumption rate (OCR),"[2]; 25 μM, 18 hours exposure",decreased
same,maximal OCR (under FCCP induction),"[2]; 25 μM, 18 hours exposure",decreased
same,ATP-linked oxygen consumption,"[2]; 25 uM, 48 h",higher
same,glucose-stimulated mtOCR,"[2]; 25 uM, 48 h",increased
same,mitochondrial coupling (oligomycin-sensitive respiration),"[2]; 25 uM, 48 h",conserving
same,spare respiratory capacity relative to basal respiration,"[2]; 25 uM, 48 h",unchanged
same,basal mitochondrial oxygen consumption rate (mtOCR),"[2]; 25 uM, 48 h, 2 mM glucose",increased
same,maximum mtOCR,"[2]; 25 uM, 48 h, after FCCP",increased
same,recovery after palmitate,"[3]; 400 μM palmitate 24 hours, then 18 hours recovery with compound",slight but significant increase in recovery
same,"protection from palmitate, co-treatment",[3]; co-treatment with palmitate for 18 hours,did not show any protection
same,mitochondrial membrane potential ψm (TMRE/MTG),[4],"not reduced; also recorded: slightly, but significantly, raised"
same,mitochondrial Complex I activity,[5],two-and-a-half-fold increase
same,mitochondrial morphology,[6],does not alter
same,CI-NDFUB8 levels,[7]; 25 uM,unaffected
same,SDHB (Complex II) protein level increase,"[7]; 25 uM, relative to DMSO",2 fold
same,UQCRC2 (Complex III) protein level increase,"[7]; 25 uM, relative to DMSO",1.5 fold
same,overall mitochondrial protein,[7],reduces
